# Laboratory results reported in patent US8338422B2, “Indolin-2-ones and aza-indolin-2-ones” (Janssen Pharmaceutica NV, priority 2007, dated 2012).
# Where “and” joins values, the source holds several entries; their conditions need not be identical. Equal values may be shown once.
# Tests used:
# Format in all cases: biochemical
# CDK1/CyclinB (h) = CDK1/CyclinB (h) (Homo sapiens, UniProt P06493); assay: CDK1/CyclinB human kinase assay (FRET); conditions: for IC50: read-out: CDK1 pIC50 (converted)
# Method: (§1) The in vitro inhibition of a panel of kinases was assessed using either the scintillation proximity assay (SPA) as described by Cook, N. D. et al., Advances in Experimental Medicine and Biology (1991), 36; p. 525-528; or the Fluorescence Resonance Energy Transfer (FRET) technology as described by Rodems, S. M. et al., Assay Drug Develop. Technol. (2002), 1; p. 9-19.
# In the FRET technology the activity of the kinase of interest is measured using an appropriate substrate that is labeled with two fluorophores (coumarin and fluorescein). Phosphorylation is determined using a developing reagent comprising a protease that recognizes and cleaves nonphosphorylated peptides. Cleavage will disturb the FRET between the fluorescein and coumarin on the peptide. Uncleaved, phosphorylated peptides maintain the FRET signal. A ratiometric readout of the donor emission over the acceptor emission quantitates the reaction process.
# (§2) All kinases are pre-diluted to a 10× working concentration prior to addition into the assay. The composition of the dilution buffer for each kinase is detailed below.
# In a final reaction volume of 10 μl, CDK1/CyclinB (h) (0.2 μg/ml) is incubated with 50 mM Hepes pH 7.5, 10 mM MgCl2, 1 mM EGTA, 0.01% Brij-35, 2 μM Z'lyte Ser/Thr peptide 12 and 10 μM ATP (Invitrogen's FRET assay). After incubation of 60 minutes at room temperature, the reaction is stopped by addition of 5 μL development reagent containing protease mix. After 60 minutes room temperature the development reaction is stopped by adding 5 μl stop solution. The plate is then read in fluorescence plate reader with excitation: 390 nm and dual emission: 460 and 538 nm. Emission ratio is determined to the formula=Emission signal intensity at 460 nm/Emission signal intensity at 538 nm.
# AuroraB (h) = AuroraB (h) (Homo sapiens, UniProt Q96GD4); assay: Aurora-B human kinase assay (SPA); conditions: for IC50: read-out: AuroraB pIC50 (converted)
# Method: as §1
# (§3) In the SPA technology the activity of the kinase of interest is measured using an appropriate biotinylated substrate that is incubated with the aforementioned kinase protein in the presence of (^33P) radiolabeled ATP. (^33P) Phosporylation of the substrate is subsequently measured through binding of the phosphorylated substrate to streptavidine coated beads that are based on the scintillant poly(vinyl toluene) (PVT-Beads). The scintillation intensity is detected by imaging on Leadseeker.
# as §2
# In a final reaction volume of 30 μl, AuroraB (h) (0.5 μg/ml) is incubated with 60 mM Hepes pH 7.5, 3 mM MgCl2, 3 mM MnCl2, 3 μM Na3VO4, 0.05 mg/ml PEG, 2 mM DTT, 3 μM Biotin-[…]-OH, 0.5 μM ATP and 2.2 nM [γ-^33P-ATP] (6.8 μCi/ml). After incubation of 60 minutes at room temperature, the reaction is stopped by addition of 40 μL of stop solution containing 8.7 mM EDTA, BSA 0.17%, 0.17% Triton X-100, 5 mg/ml SPA beads (GE-healthcare). The plate is centriguged and read for Scintillation imaging on Leadseeker.
# GSK3β (h) = GSK3β (h) (Homo sapiens, UniProt P49841); assay: GSK-3β human kinase assay (SPA); conditions: for IC50: read-out: GSK3B pIC50 (converted)
# Method: as §1, §3, §2
# In a final reaction volume of 30 μl, GSK3β (h) (1 μg/ml) is incubated with 25 mM Tris pH 7.4, 10 mM MgCl2, 1 mM DTT, 1 μM peptide Biotin-KRREILSRRPSYR-OH, 1 μM ATP and 2 nM [γ-^33P-ATP] (6.0 μCi/ml). After incubation of 60 minutes at room temperature, the reaction is stopped by addition of […] of stop solution containing 8.7 mM EDTA, BSA 0.17%, 0.17% Triton X-100, 6.25 mg/ml SPA beads (GE-healthcare). The plate is centriguged and read for Scintillation imaging on Leadseeker.
# PLK4 (h) = PLK4 (h) (Homo sapiens, UniProt O00444); assay: PLK-4 human kinase assay (SPA); conditions: for IC50: read-out: PLK4 pIC50 (converted)
# Method: as §1, §3, §2
# In a final reaction volume of 30 μl PLK4 (h) (19 μg/ml) is incubated with 50 mM Hepes pH 8.0, 10 mM MgCl2, 50 mM NaCl, 1 mM NaF, 1 mM DTT, 10 μM of peptide Biotin-RPRGQRDSSYYWE-OH, 1 μM ATP and 2 nM [γ-^33P-ATP] (6.0 μCi/ml). After incubation of 60 minutes at room temperature, the reaction is stopped by addition of 40 μl, of stop solution containing 8.7 mM EDTA, BSA 0.17%, 0.17% Triton X-100, 1.7 mg/ml SPA beads (GE-healthcare). The plate is centriguged and read for Scintillation imaging on Leadseeker.
# GSK3β (h), sequence (P49841 whole entry): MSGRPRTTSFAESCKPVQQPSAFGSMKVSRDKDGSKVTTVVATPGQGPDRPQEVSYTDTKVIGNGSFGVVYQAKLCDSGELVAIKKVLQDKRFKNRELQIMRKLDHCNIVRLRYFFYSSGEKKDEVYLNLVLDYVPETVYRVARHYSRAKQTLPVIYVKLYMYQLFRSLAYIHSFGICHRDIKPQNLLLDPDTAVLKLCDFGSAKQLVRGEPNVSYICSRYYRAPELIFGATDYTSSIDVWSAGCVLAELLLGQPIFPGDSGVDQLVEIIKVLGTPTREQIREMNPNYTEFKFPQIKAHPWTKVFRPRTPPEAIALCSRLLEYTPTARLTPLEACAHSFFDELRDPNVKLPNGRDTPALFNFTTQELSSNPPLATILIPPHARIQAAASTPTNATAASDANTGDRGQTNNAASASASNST
# CDK1/CyclinB (h), sequence (P06493 whole entry): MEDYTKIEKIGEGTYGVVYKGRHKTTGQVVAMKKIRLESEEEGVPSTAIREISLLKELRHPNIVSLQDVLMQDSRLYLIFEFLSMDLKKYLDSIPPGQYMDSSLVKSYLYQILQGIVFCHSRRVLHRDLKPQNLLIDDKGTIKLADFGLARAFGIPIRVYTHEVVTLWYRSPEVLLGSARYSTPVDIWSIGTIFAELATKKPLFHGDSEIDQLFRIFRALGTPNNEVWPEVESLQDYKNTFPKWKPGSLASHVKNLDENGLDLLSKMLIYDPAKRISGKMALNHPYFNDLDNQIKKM
# CDK1/CyclinB (h), sequence (P14635 whole entry partner): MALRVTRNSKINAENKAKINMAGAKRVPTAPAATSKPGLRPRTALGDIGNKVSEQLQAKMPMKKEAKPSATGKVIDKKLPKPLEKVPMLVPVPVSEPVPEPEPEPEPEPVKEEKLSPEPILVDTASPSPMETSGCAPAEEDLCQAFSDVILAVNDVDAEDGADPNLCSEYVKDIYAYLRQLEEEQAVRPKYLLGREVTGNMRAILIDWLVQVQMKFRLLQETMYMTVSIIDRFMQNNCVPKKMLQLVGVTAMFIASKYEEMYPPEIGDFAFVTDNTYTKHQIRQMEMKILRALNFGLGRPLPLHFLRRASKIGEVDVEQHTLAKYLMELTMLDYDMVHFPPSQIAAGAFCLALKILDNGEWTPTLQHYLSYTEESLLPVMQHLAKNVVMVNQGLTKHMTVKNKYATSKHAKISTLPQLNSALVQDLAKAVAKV
# AuroraB (h), sequence (Q96GD4 whole entry): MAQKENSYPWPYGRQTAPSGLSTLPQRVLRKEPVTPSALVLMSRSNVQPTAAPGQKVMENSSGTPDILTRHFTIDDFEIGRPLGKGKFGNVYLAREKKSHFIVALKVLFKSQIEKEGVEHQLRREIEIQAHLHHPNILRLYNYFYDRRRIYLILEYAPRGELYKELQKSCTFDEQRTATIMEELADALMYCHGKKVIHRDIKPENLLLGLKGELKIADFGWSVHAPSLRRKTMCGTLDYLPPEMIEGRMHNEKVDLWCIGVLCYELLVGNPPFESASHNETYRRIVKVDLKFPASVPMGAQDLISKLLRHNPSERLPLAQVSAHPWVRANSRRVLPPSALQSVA
# PLK4 (h), sequence (O00444 whole entry): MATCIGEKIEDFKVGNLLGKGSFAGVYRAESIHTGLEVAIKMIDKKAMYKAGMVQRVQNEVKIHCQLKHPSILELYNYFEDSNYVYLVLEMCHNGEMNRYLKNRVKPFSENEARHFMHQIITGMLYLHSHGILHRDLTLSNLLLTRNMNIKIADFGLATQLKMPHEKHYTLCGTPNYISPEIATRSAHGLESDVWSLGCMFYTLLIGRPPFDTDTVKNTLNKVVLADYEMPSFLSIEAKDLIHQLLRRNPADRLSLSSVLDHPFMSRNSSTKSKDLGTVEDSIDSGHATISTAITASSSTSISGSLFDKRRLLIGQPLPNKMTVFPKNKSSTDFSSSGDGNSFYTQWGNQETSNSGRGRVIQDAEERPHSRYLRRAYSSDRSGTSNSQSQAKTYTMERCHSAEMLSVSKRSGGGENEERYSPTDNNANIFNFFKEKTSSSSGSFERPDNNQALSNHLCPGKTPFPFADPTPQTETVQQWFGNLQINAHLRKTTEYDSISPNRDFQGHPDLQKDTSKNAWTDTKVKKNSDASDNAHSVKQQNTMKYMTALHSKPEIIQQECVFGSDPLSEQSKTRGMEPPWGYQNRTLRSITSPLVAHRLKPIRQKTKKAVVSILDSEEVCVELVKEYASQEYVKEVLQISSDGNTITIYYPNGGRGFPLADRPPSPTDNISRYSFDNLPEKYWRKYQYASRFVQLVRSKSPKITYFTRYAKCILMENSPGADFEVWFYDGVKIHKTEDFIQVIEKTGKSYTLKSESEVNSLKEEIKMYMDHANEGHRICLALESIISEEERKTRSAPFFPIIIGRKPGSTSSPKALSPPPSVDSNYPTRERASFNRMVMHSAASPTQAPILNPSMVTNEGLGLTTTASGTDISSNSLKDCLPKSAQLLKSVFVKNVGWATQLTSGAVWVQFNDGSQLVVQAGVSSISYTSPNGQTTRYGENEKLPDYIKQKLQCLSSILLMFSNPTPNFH
IC50 (CDK1/CyclinB (h)),IC50 (AuroraB (h)) [µM],IC50 (GSK3β (h)) [µM],IC50 (PLK4 (h)) [µM],SMILES,CDK1 pIC50 (CDK1/CyclinB (h)),AuroraB pIC50 (AuroraB (h)),GSK3B pIC50 (GSK3β (h)),PLK4 pIC50 (PLK4 (h))
,,,,COc1ccc2cc1OCCCCCCC(=O)N(C)CCNc1ncnc3c1C(=CN2)C(=O)N3 (mixture of isomers) [Compound 76],<5,6.28,6.54,5.72
,,,,CN1CCCN(C)c2ncnc3c2C(=CNc2ccc(Cl)c(c2)OCCCC1=O)C(=O)N3 (mixture of isomers) [Compound 86],<5,5.47,6.42,5.9
,,,,COc1ccc2cc1CN(C)CCCCC(=O)N(C)CCCN(C)c1ncnc3c1C(=CN2)C(=O)N3 (mixture of isomers) [Compound 87],<5,<5,6.17,<5
,,,,CN1CCCN(C)c2ncnc3c2C(=CNc2cccc(c2)OCCCC1=O)C(=O)N3 (mixture of isomers) [Compound 88],<5,5.33,6.26,5.85
,,,,COc1ccc2cc1CN(C)CCCCCC(=O)N(C)CCCN(C)c1ncnc3c1C(=CN2)C(=O)N3 (mixture of isomers) [Compound 89],<5,<5,<5,<5
5.62 µM,> 10,1.17,4.57,CN1CC(=O)N2CCN(CC2)c2cccc3c2/C(=C/Nc2cccc(c2)S1(=O)=O)C(=O)N3 [Compound 2],,,,
~10 µM,> 10,> 10,6.17,COc1cc2cc(c1OC)CN(C)CCCC(=O)N(C)CCCNc1ncnc3c1/C(=C/N2)C(=O)N3 [Compound 6],,,,
1.7 µM,> 10,0.0741,0.759,CN1CCCC(=O)N(C)CCCNc2ncnc3c2/C(=C/Nc2ccc(N4CCOCC4)c(c2)C1)C(=O)N3 [Compound 7],,,,
> 10 µM,> 10,> 10,> 10,CN1CCNc2ncnc3c2/C(=C/Nc2ccc(N4CCOCC4)c(c2)OCCCC1=O)C(=O)N3 [Compound 8],,,,
> 10 µM,> 10,4.68,1.86,CN1CCC(=O)NCC#Cc2cccc3c2/C(=C/Nc2cccc(c2)S(=O)(=O)N(C)CC1=O)C(=O)N3 [Compound 21],,,,
> 10 µM,> 10,2.63,> 10,N#Cc1ccc2cc1OCCCCC(=O)N1CCN(CC1)c1ncnc3c1/C(=C/N2)C(=O)N3 [Compound 26],,,,
~6.76 µM and 6.76 µM,0.759,0.166,3.47,CN1CCNc2ncnc3c2/C(=C/Nc2ccc(Cl)c(c2)OCCCCC1=O)C(=O)N3 [Compound 56],,,,
> 10 µM,1.07,0.263,4.79,CN1CCNc2ncnc3c2/C(=C/Nc2ccc(Cl)c(c2)OCCCCCC1=O)C(=O)N3 [Compound 57],,,,
> 10 µM,5.13,1.05,4.37,CN1CCNc2ncnc3c2/C(=C/Nc2cccc(c2)OCCCCCCC1=O)C(=O)N3 [Compound 59],,,,
0.229 µM,0.891,0.263,1.74,CN1CCNc2ncnc3c2/C(=C/Nc2ccc(Cl)c(c2)OCCCC1=O)C(=O)N3 [Compound 60],,,,
> 10 µM,0.794,0.0427,2.14,CN1CCCNc2ncnc3c2/C(=C/Nc2ccc(Cl)c(c2)OCCCCCC1=O)C(=O)N3 [Compound 64],,,,

IC50 (CDK1/CyclinB (h)),IC50 (AuroraB (h)) [µM],IC50 (GSK3β (h)) [µM],IC50 (PLK4 (h)) [µM],SMILES,CDK1 pIC50 (CDK1/CyclinB (h)),AuroraB pIC50 (AuroraB (h)),GSK3B pIC50 (GSK3β (h)),PLK4 pIC50 (PLK4 (h))
> 10 µM,> 10,1.38,8.91,CN1CCCNc2ncnc3c2/C(=C/Nc2ccc(Cl)c(c2)OCCCCCCC1=O)C(=O)N3 [Compound 65],,,,
2.34 µM,0.347,0.0776,0.479,COc1ccc2cc1OCCCCCC(=O)N(C)CCCNc1ncnc3c1/C(=C/N2)C(=O)N3 [Compound 66],,,,
0.603 µM,> 10,0.178,5.62,COc1ccc2cc1CN(C)CCCCC(=O)N(C)CCCNc1ncnc3c1/C(=C/N2)C(=O)N3 [Compound 67],,,,
> 10 µM,1.91,0.575,1.45,COc1ccc2cc1OCCCCCCC(=O)N(C)CCCNc1ncnc3c1/C(=C/N2)C(=O)N3 [Compound 72],,,,
1.78 µM,> 10,0.851,3.72,CN1CCCC(=O)N(C)CCCNc2ncnc3c2/C(=C/Nc2cccc(c2)C1)C(=O)N3 [Compound 73],,,,
> 10 µM,> 10,> 10,5.62,CN1CCCCCCC(=O)N(C)CCCNc2ncnc3c2/C(=C/Nc2cccc(c2)C1)C(=O)N3 [Compound 74],,,,
5.37 µM,> 10,0.562,5.89,COc1ccc2cc1CN(C)CCCCC(=O)N(C)CCNc1ncnc3c1/C(=C/N2)C(=O)N3 [Compound 75],,,,
> 10 µM,7.59,2.19,> 10,CN1CCNc2ncnc3c2/C(=C/Nc2ccc(Cl)c(c2)OCCCCCCC1=O)C(=O)N3 [Compound 78],,,,
8.91 µM,9.12,0.813,3.31,CN1CCCCC(=O)N(C)CCNc2ncnc3c2/C(=C/Nc2cccc(c2)C1)C(=O)N3 [Compound 79],,,,
> 10 µM,> 10,4.68,1.41,CN1CCCCCC(=O)N(C)CCNc2ncnc3c2/C(=C/Nc2cccc(c2)C1)C(=O)N3 [Compound 80],,,,
> 10 µM,> 10,2.75,1.07,CN1CCCCCC(=O)N(C)CCCNc2ncnc3c2/C(=C/Nc2cccc(c2)C1)C(=O)N3 [Compound 81],,,,
> 10 µM,> 10,1.05,6.17,CN1CCCC(=O)N(C)CCNc2ncnc3c2/C(=C/Nc2cccc(c2)C1)C(=O)N3 [Compound 82],,,,
> 10 µM,> 10,2.19,1.66,CN1CCCCCCC(=O)N(C)CCNc2ncnc3c2/C(=C/Nc2cccc(c2)C1)C(=O)N3 [Compound 83],,,,
> 10 µM,> 10,0.617,5.5,CN1CCCC(=O)N(C)CCCN(C)c2ncnc3c2/C(=C/Nc2ccc(Cl)c(c2)C1)C(=O)N3 [Compound 90],,,,
> 10 µM,> 10,0.977,> 10,CN1CCCCC(=O)N(C)CCCN(C)c2ncnc3c2/C(=C/Nc2ccc(Cl)c(c2)C1)C(=O)N3 [Compound 91],,,,
> 10 µM,> 10,1.48,1.29,CN1CCN(c2ccc3cc2CN(C)CCCCC(=O)N(C)CCNc2ncnc4c2/C(=C/N3)C(=O)N4)CC1 [Compound 92],,,,
